# From paper PMC10536065 (ACS Omega, 2023)
# Entries after “also recorded” stand apart in the source; their conditions may differ.
# Experiments:
# Type I collagen [1] = molecular target: T1, Type I collagen (Bos taurus, UniProt P02453+P02465); assay: ELISA saturation binding to collagen; design: species or system bovine
# [2] = Circular dichroism spectroscopy; assay type: physicochemical; conditions: NaCl, MgCl2, CaCl2; 10 μM peptide
# Type I collagen [3] = molecular target: T1, Type I collagen; assay: Inhibition of cCBD-LL37 binding to collagen by cCBD; design: species or system bovine; conditions: 500 nM cCBD-LL37 with 0–500 nM cCBD, 1 h room temperature; n = 4
# T1 sequence (P02453 162-1217 limits assumed): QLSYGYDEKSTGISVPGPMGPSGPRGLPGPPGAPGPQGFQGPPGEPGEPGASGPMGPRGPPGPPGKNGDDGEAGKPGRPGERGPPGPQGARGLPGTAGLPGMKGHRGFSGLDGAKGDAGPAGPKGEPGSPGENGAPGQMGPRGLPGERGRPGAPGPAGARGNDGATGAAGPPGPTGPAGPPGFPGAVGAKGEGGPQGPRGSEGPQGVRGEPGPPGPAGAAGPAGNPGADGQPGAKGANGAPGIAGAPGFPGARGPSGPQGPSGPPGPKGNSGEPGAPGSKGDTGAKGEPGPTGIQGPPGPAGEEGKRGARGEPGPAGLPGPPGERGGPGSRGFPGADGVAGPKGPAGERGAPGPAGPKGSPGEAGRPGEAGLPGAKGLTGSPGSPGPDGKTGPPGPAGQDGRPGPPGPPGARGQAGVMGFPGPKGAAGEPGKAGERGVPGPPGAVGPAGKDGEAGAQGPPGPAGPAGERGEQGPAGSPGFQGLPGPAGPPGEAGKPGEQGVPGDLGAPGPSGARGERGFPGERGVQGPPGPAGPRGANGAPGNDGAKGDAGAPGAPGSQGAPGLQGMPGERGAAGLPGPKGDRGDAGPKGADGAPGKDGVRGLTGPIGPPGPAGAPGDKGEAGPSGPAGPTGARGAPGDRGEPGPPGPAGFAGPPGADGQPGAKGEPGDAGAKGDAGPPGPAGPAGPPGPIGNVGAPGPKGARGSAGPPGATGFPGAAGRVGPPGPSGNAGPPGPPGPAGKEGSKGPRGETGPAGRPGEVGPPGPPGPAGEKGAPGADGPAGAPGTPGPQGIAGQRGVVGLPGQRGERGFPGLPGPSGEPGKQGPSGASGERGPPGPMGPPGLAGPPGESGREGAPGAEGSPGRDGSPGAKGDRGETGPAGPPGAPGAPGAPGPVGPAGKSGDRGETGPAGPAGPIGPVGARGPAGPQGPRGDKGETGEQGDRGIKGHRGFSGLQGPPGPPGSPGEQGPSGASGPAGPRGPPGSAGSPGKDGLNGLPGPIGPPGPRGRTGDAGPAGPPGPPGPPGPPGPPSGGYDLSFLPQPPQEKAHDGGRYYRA
# T1 sequence (P02465 80-1117 limits assumed): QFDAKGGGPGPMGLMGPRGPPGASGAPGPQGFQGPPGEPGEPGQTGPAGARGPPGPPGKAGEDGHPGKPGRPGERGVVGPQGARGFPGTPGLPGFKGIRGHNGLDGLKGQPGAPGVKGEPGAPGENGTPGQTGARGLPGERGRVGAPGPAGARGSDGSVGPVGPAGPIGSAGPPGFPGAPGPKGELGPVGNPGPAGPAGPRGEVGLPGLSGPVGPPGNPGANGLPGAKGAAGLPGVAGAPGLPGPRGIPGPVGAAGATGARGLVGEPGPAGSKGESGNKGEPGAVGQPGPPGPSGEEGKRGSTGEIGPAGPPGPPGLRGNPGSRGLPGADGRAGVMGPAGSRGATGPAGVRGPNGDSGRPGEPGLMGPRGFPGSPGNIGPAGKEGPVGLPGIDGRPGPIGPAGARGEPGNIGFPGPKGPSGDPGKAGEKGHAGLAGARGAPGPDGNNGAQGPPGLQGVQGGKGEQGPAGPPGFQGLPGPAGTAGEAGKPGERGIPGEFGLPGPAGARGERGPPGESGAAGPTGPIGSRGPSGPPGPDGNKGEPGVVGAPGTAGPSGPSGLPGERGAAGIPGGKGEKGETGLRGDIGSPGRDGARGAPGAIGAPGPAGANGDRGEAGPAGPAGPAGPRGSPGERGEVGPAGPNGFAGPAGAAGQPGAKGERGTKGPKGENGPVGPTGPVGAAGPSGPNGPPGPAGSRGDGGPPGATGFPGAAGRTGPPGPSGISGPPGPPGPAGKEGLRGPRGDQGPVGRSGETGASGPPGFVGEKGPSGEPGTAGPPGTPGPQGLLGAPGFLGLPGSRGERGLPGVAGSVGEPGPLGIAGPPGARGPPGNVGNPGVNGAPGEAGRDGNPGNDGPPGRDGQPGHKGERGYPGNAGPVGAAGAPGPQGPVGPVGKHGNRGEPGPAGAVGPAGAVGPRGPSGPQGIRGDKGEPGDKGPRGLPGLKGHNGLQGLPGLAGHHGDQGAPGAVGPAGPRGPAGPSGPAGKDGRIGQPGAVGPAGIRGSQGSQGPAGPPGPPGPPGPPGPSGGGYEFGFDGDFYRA
Compound,Kd (Type I collagen [1]),structural stability at varying ionic strengths compared with LL37 [2],inhibition of cCBD-LL37 binding to collagen by excess cCBD (Type I collagen [3])
"CC[C@H](C)[C@H](NC(=O)[C@H](CCCCN)NC(=O)[C@H](CCC(=O)O)NC(=O)[C@H](CCCCN)NC(=O)[C@H](CO)NC(=O)[C@H](CCCCN)NC(=O)[C@H](CCCNC(=N)N)NC(=O)[C@H](Cc1ccccc1)NC(=O)[C@H](Cc1ccccc1)NC(=O)[C@H](CC(=O)O)NC(=O)CNC(=O)[C@H](CC(C)C)NC(=O)[C@@H](N)CC(C)C)C(=O)NCC(=O)N[C@@H](CCCCN)C(=O)N[C@@H](CCC(=O)O)C(=O)N[C@@H](Cc1ccccc1)C(=O)N[C@@H](CCCCN)C(=O)N[C@@H](CCCNC(=N)N)C(=O)N[C@H](C(=O)N[C@H](C(=O)N[C@@H](CCC(N)=O)C(=O)N[C@@H](CCCNC(=N)N)C(=O)N[C@H](C(=O)N[C@@H](CCCCN)C(=O)N[C@@H](CC(=O)O)C(=O)N[C@@H](Cc1ccccc1)C(=O)N[C@@H](CC(C)C)C(=O)N[C@@H](CCCNC(=N)N)C(=O)N[C@@H](CC(N)=O)C(=O)N[C@@H](CC(C)C)C(=O)N[C@H](C(=O)N1CCC[C@H]1C(=O)N[C@@H](CCCNC(=N)N)C(=O)N[C@H](C(=O)N[C@@H](CCC(=O)O)C(=O)N[C@@H](CO)C(=O)O)[C@@H](C)O)C(C)C)[C@@H](C)CC)C(C)C)[C@@H](C)CC [LL37, reference compound]",80 nM,,
CC[C@H](C)[C@H](NC(=O)[C@H](CCCCN)NC(=O)[C@H](CCC(=O)O)NC(=O)[C@H](CCCCN)NC(=O)[C@H](CO)NC(=O)[C@H](CCCCN)NC(=O)[C@H](CCCNC(=N)N)NC(=O)[C@H](Cc1ccccc1)NC(=O)[C@H](Cc1ccccc1)NC(=O)[C@H](CC(=O)O)NC(=O)CNC(=O)[C@H](CC(C)C)NC(=O)[C@@H](N)CC(C)C)C(=O)NCC(=O)N[C@@H](CCCCN)C(=O)N[C@@H](CCC(=O)O)C(=O)N[C@@H](Cc1ccccc1)C(=O)N[C@@H](CCCCN)C(=O)N[C@@H](CCCNC(=N)N)C(=O)N[C@H](C(=O)N[C@H](C(=O)N[C@@H](CCC(N)=O)C(=O)N[C@@H](CCCNC(=N)N)C(=O)N[C@H](C(=O)N[C@@H](CCCCN)C(=O)N[C@@H](CC(=O)O)C(=O)N[C@@H](Cc1ccccc1)C(=O)N[C@@H](CC(C)C)C(=O)N[C@@H](CCCNC(=N)N)C(=O)N[C@@H](CC(N)=O)C(=O)N[C@@H](CC(C)C)C(=O)N[C@H](C(=O)N1CCC[C@H]1C(=O)N[C@@H](CCCNC(=N)N)C(=O)N[C@H](C(=O)N[C@@H](CCC(=O)O)C(=O)N[C@@H](CO)C(=O)N[C@@H](CC(=O)O)C(=O)N[C@@H](Cc1ccc(O)cc1)C(=O)N[C@@H](CCCCN)C(=O)N[C@@H](CC(=O)O)C(=O)N[C@@H](CC(=O)O)C(=O)N[C@@H](CC(=O)O)C(=O)N[C@@H](CC(=O)O)C(=O)N[C@@H](CCCCN)C(=O)N[C@H](C(=O)N[C@@H](CCCCN)C(=O)N[C@@H](CCCCN)C(=O)N[C@H](C(=O)N[C@@H](CC(C)C)C(=O)N[C@@H](CCCNC(=N)N)C(=O)N[C@H](C(=O)O)[C@@H](C)O)[C@@H](C)O)[C@@H](C)O)[C@@H](C)O)C(C)C)[C@@H](C)CC)C(C)C)[C@@H](C)CC [cCBD-LL37],49 nM,stronger structural stability at varying ionic strengths when compared with LL37,
DYKDDDDKTKKTLRT [cCBD],,,significantly (*p < 0.05) inhibited cCBD-LL37 binding to collagen; also recorded: inhibited cCBD-LL37 binding to collagen but did not completely abrogate the binding
